From ChEMBL document CHEMBL1133613, “1-[4-(3-Phenylalkyl)phenyl]-2-aminopropanes as 5-HT(2A) partial agonists” (J Med Chem, 2000)

Experiments:
[1] = target: T1, 5-hydroxytryptamine receptor 2C (Rattus norvegicus, UniProt P08909); assay: Displacement of [3H]mesulergine from A9 cells stably expressing rat 5-hydroxytryptamine 2C receptor; assay type: cell-based
T1 sequence (P08909 whole entry): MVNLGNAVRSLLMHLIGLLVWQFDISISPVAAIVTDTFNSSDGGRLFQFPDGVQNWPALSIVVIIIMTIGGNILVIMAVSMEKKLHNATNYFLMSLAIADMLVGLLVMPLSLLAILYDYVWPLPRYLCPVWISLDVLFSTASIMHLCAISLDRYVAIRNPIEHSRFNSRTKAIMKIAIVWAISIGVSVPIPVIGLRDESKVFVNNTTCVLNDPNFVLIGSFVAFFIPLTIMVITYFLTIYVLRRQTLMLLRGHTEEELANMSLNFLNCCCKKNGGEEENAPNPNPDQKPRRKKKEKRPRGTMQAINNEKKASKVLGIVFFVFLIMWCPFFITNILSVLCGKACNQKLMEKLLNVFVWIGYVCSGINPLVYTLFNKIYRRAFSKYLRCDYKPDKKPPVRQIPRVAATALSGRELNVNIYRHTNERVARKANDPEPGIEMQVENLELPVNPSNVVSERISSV

[2] = target: 5-hydroxytryptamine receptor 2A (Rattus norvegicus, UniProt P14842); assay: Displacement of [3H]ketanserin from NIH3T3 cells stably expressing rat 5-hydroxytryptamine 2A receptor; assay type: cell-based
Sequence of 5-hydroxytryptamine receptor 2A (P14842 whole entry): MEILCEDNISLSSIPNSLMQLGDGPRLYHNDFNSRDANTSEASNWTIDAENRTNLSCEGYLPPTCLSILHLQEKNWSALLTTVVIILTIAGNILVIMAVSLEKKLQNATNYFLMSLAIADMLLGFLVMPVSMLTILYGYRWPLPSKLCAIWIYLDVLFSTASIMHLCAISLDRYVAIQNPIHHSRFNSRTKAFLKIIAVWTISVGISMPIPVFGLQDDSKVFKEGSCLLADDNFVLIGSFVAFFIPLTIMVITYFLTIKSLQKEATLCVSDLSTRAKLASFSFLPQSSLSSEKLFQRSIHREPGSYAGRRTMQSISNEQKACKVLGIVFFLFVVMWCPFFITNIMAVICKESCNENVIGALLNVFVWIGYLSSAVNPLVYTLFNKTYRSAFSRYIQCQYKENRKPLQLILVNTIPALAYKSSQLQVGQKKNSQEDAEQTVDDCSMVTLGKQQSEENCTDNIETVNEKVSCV

[3] = target: Serotonin receptor 2a and 2c (5HT2A and 5HT2C) (Rattus norvegicus) (UniProt P08909+P14842); assay: Relative affinities for rat 5-HT2C receptors and 5-HT2A receptors; assay type: protein assay
Sequence of Serotonin receptor 2a and 2c (5HT2A and 5HT2C) (Rattus norvegicus) (P14842 whole entry, looked up, one chain of several): as the sequence (P14842 whole entry) above

Row | SMILES | Ki [1] | Ki [2] | Selectivity [3]
1 | COc1cc(CC(C)N)c(OC)cc1CCCc1ccc(Cl)cc1 (configuration not stated) | 16 nM | 12 nM | 1.3
2 | COc1cc(CC(C)N)cc(OC)c1Br (configuration not stated) | 570 nM | 210 nM | 
3 | COc1cccc(CC(C)N)c1 (configuration not stated) | > 10000 nM | > 10000 nM | 
4 | COc1cc(CCCc2ccccc2)ccc1CC(C)N (configuration not stated) | 89 nM | 8 nM | 11.1
5 | COc1cc(CC(C)N)c(OC)cc1CCc1ccccc1 (configuration not stated) | 140 nM | 95 nM | 1.5
6 | COc1cc(CCN)c(OC)cc1Br |  | 16 nM | 
7 | COc1cc(CCCCc2ccccc2)c(OC)cc1CCN | 25 nM | 115 nM | 0.2
8 | COc1cc(CCCc2ccccc2)cc(OC)c1CC(C)N (configuration not stated) | 39 nM | 3 nM | 13
9 | COc1cc(CCCc2ccccc2)c(OC)cc1CCN | 28 nM | 150 nM | 0.2
10 | COc1c(CCCc2ccccc2)ccc(CC(C)N)c1OC (configuration not stated) | 79 nM | 4 nM | 19.8
11 | NCCc1ccc(CCCc2ccccc2)cc1 | 525 nM | 60 nM | 8.9
12 | COc1ccccc1CC(C)N (configuration not stated) | > 10000 nM | > 10000 nM | 
13 | COc1cc(CC(C)N)ccc1CCCc1ccccc1 (configuration not stated) | 135 nM | 17 nM | 7.9
14 | COc1cc(CCc2ccccc2)c(OC)cc1CCN | 76 nM | 37 nM | 2
15 | COc1cc(CC(C)N)c(OC)cc1CCCCc1ccccc1 (configuration not stated) | 6 nM | 8 nM | 0.8
16 | COc1cccc(OC)c1CC(C)N (configuration not stated) | > 10000 nM | > 10000 nM | 
17 | COc1ccc(CCCc2cc(OC)c(CC(C)N)cc2OC)cc1 (configuration not stated) | 24 nM | 28 nM | 0.9
18 | COc1ccc(OC)c(CC(C)N)c1 (configuration not stated) | > 10000 nM | 4720 nM | 
19 | COc1cccc(CC(C)N)c1OC (configuration not stated) | > 10000 nM | 4280 nM | 
20 | COc1cc(CC(C)N)cc(OC)c1CCCc1ccccc1 (configuration not stated) | 40 nM | 4 nM | 10
21 | COc1cc(CC(C)N)c(OC)cc1CCCc1ccccc1 (configuration not stated) | 50 nM | 30 nM | 1.7
22 | COc1ccc(OC)c(CCN)c1 | 5520 nM | 3000 nM | 
23 | CC(N)Cc1ccc(CCCc2ccccc2)cc1 (configuration not stated) | 530 nM | 78 nM | 6.8
24 | COc1cc(C[C@@H](C)N)cc(OC)c1 | > 10000 nM | > 10000 nM | 
